In publication PMC7993727, “Discovery of a novel AR/HDAC6 dual inhibitor for prostate cancer treatment” (Aging (Albany NY), 2021):
pIC50: −log10 of the molar value. Where “and” joins values, the source holds several entries; their conditions need not be identical. Equal values may be shown once.

Legend:
HDAC2 = target: T1, HDAC2 (Homo sapiens, UniProt Q92769); assay: biochemical
T1 construct: purchased BPS Bioscience
Procedure: (§1) Commercial fluorescent assay kits were used to measure the activities of HDAC (BPS Bioscience). Briefly, the tested compounds were diluted in DMSO into a 96-well plate, and then assay buffer, HDAC, and substrate were added. The plate was incubated at 37° C for 30 minutes for enzymatic reactions, and the developer was added. After 10 minutes of incubation, the generated fluorescence was measured at an excitation of 380 nm and an emission of 460 nm.

HDAC1 = target: T2, HDAC1 (Homo sapiens, UniProt Q13547); assay: fluorescent-based HDAC assay; assay type: biochemical
T2 construct: purchased BPS Bioscience
T2 sequence (Q13547 whole entry): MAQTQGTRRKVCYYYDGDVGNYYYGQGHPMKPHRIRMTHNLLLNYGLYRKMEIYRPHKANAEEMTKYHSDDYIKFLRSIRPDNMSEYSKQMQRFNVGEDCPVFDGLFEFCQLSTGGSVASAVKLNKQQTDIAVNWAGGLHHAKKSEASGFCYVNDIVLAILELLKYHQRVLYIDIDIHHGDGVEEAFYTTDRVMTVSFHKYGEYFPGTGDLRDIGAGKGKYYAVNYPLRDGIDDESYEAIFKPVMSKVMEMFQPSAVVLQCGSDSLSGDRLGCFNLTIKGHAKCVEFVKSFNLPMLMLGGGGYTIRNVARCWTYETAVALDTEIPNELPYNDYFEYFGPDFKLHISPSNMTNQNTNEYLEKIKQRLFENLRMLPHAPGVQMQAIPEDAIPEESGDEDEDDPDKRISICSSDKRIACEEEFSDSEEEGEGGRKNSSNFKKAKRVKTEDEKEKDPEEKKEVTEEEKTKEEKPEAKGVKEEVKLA
Procedure: as §1

HDAC3 = target: T3, HDAC3 (Homo sapiens, UniProt O15379); assay: fluorescent-based HDAC assay; assay type: biochemical
T3 construct: purchased BPS Bioscience
T3 sequence (O15379 whole entry): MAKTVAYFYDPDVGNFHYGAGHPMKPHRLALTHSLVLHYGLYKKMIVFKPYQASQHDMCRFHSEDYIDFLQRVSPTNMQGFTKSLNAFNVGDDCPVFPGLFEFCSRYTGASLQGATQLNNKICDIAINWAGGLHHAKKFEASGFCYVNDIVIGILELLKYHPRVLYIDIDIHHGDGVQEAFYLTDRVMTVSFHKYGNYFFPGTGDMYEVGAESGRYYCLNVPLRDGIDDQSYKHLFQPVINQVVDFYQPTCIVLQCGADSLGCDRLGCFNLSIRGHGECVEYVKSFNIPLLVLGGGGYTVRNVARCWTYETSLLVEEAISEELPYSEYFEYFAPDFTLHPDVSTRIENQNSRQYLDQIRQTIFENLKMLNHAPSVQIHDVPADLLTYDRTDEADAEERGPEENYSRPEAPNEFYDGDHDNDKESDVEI
T3 sequence (Q9Y618 395-489 partner limits assumed): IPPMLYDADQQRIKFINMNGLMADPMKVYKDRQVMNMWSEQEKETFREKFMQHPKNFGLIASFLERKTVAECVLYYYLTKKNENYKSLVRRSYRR
Procedure: as §1

HDAC4 = target: T4, HDAC4 (Homo sapiens, UniProt P56524); assay: fluorescent-based HDAC assay; assay type: biochemical
T4 construct: purchased BPS Bioscience
T4 sequence (P56524 whole entry): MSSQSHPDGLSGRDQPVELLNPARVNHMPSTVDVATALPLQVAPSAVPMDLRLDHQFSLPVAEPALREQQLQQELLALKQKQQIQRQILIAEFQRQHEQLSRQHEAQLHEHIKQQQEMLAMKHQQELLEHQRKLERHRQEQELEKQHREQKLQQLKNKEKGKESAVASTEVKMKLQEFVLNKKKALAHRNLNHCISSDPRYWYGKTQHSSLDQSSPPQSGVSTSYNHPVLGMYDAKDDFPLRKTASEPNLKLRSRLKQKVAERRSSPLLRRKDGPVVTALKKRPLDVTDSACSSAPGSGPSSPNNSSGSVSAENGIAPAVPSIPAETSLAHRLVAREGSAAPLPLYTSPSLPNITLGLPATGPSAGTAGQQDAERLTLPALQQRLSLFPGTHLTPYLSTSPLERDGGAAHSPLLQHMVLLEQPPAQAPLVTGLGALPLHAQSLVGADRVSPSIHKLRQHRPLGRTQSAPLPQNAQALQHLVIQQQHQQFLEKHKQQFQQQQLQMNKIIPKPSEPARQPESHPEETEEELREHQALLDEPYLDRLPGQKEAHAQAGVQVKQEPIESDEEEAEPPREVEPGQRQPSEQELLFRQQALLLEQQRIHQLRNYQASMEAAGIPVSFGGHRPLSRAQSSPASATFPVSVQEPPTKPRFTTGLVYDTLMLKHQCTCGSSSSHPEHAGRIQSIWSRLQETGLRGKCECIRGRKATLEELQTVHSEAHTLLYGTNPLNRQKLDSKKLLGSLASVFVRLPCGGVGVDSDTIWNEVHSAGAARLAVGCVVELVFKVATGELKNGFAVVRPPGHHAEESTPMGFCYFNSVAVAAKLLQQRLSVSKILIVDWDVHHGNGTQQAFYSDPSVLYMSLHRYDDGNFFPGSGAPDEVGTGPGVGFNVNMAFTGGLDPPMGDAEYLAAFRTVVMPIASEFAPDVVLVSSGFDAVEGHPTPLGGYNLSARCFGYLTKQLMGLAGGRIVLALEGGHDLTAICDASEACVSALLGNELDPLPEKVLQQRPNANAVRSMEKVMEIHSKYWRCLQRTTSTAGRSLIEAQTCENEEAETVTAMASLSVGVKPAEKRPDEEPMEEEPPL
Procedure: as §1

DU145 cells = assay: cell proliferation assay; assay type: cell-based; settings: Homo sapiens, DU-145, 72 h, read-out: IC50 values proliferation DU145
HEK293 cells = assay: cell proliferation assay; assay type: cell-based; settings: Homo sapiens, HEK293, 72 h, read-out: IC50 values proliferation HEK293
[1] = pharmacokinetics of Zeta55 in rats; assay type: in vivo; settings: for AUC(0-t): 0-72h
Procedure: To evaluate the pharmacokinetic properties of Zeta55 in vivo, rats were orally (20 mg/kg) or intravenously (5 mg/kg) administrated with Zeta55, and the plasma concentration of Zeta55 was measured using LC-MS/MS.
SD male rats weighing about 250 g were used for the pharmacokinetics study of Zeta55. After a fast of 12 hours, four rats were oral administrated with 20 mg/kg Zeta55 and one rat was tail vein injected with 5 mg/kg Zeta55. Plasma samples of 0.2 ml were taken at 0, 0.083, 0.25, 0.5, 1, 2, 3, 5, 8, 10, 24, 48, and 72 hours after administration and then measured by LC-MS/MS. AUC0-t, AUC0-∞, t1/2, Tmax, Vz/F, and Cl/F were analyzed by Phoenix winnonlin 8.0.

AR-LBD = assay: AR competitive binding, fluorescence polarization
Procedure: To evaluate the AR inhibition activities of Zeta55, an AR luciferase activity assay was performed (Table 1 and Supplementary Figure 1). […]. To evaluate the HDAC inhibition activities of Zeta55, fluorescent-based HDAC assays were performed (Table 1 and Supplementary Figure 3). […]. Both compounds seem ineffective against HDAC4.
Supplementary Figure 1. […]
polarization assay. Test compounds were incubated with recombinant AR-LBD (GST) and the fluorescence polarization (mP) was measured
at an excitation wavelength of 485 nm and emission wavelength of 535 nm. […]

TMPRSS2 = TMPRSS2 mRNA (qRT-PCR) and protein (Western blot) expression in VCaP cells; assay type: cell-based; settings: 10 nM DHT, 24 hours
Procedure: RNA expression level was analyzed by qRT-PCR and protein expression level was analyzed by Western blot. […] (I) Representative immunofluorescence microscopic images of VCaP cells for checking the subcellular localization of AR.
The RNA of VCaP cells was extracted using a Simply P Total RNA Extraction kit (Bioer technology) and cDNA was synthesized using a SMARTer PCR cDNA Synthesis Kit (Clontech). PSA and β-actin primers were synthesized by Sangon Biotech according to previous literature. Real-time PCR was performed using the PowerUp SYBR™ Green kit (ThermoFisher). The PCR program was run on a LightCycler 480II (Roche) and set as follows: 2 minutes at 95° C followed by 40 cycles of 30 seconds at 95° C, 15 seconds at 60° C and 30 seconds at 72° C. Data were quantified using the 2-ΔΔCt method based on the Ct values of PSA and β-actin from two parallel experiments performed in triplicate.
The whole-cell extracts were prepared in lysis buffer with a protease inhibitor cocktail (Bimake), while the xenograft tissue extracts were prepared in 0.5% Nonidet P 40 Substitute solution (Biosharp) with cocktail protease inhibitor (Bimake). Each sample containing 30 μg of total protein was loaded onto 10% SDS-PAGE and electrotransferred onto polyvinylidene fluoride membranes. […]

HSP90, HSP60, HSP70 = assay: expression levels of heat shock proteins; assay type: cell-based
[2] = IV, tail vein injection 5 mg/kg, n=1, rats
[3] = male, SD, rat, plasma, IV, tail vein injection 5 mg/kg, n=1, rats
[4] = male, SD, rat, plasma, PO, oral gavage 20 mg/kg, n=4, rats

T1 sequence (Q92769 whole entry): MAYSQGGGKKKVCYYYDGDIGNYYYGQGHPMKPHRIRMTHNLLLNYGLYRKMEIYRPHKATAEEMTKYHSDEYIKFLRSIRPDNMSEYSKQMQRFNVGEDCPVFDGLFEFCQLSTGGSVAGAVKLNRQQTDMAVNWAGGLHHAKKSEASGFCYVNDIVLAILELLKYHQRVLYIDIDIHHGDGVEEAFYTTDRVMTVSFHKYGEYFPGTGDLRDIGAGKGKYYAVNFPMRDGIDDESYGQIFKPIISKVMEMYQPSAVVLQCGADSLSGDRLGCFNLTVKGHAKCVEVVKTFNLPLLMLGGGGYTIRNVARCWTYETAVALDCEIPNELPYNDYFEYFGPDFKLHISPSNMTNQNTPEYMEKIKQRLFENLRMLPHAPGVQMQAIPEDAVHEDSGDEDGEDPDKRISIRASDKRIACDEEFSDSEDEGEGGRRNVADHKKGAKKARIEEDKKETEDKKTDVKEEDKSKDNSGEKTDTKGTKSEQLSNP

N#Cc1ccc(N2C(=O)C3(CCC3)N(c3ccc(C(=O)NO)c(F)c3)C2=S)cc1C(F)(F)F [Zeta55]
pIC50 (HDAC2): < 4.70 | pIC50 (HDAC1): < 4.70 | pIC50 (HDAC3): < 4.70 | pIC50 (HDAC4): < 4.70 | pIC50 (DU145 cells): 4.34 | pIC50 (HEK293 cells): < 4.30 | Cl/F [1, 2]: 114.6149 mL/min/kg | Vz/F [1, 2]: 7.741576 L/kg | t1/2 ([1]; PO, oral gavage 20 mg/kg, n=4, rats, plasma, 20 mg/kg): 174 min and 175.5 min | half-life ([1]; male, SD, rat, plasma, iv, 5 mg/kg, tail vein injection 5 mg/kg, n=1, rats): ~48 min | half-life ([1]; male, SD, rat, plasma, po, 20 mg/kg, oral gavage 20 mg/kg, n=4, rats): ~174 min | AUC(0-inf) [1, 3]: 727 ng·h/mL | Cmax [1, 3]: 1430 ng/mL | Tmax [1, 3]: 4.98 min | AUC(0-t) [1, 3]: 722 ng·h/mL | bioavailability ([1]; male, SD, rat, plasma, PO 20 mg/kg vs IV 5 mg/kg, rats): 17.6% | AUC(0-inf) [1, 4]: 555 ng·h/mL | CL/F [1, 4]: 632 mL/min/kg | Cmax [1, 4]: 183 ng/mL | Tmax [1, 4]: 22.5 min | AUC(0-t) [1, 4]: 508 ng·h/mL | Vd/F ([1]; male, SD, rat, plasma, PO, oral gavage 20 mg/kg, n=4, rats, read-out: Vz/F): 166 L/kg | AR binding affinity relative to MDV3100 (AR-LBD): 60% | DHT-induced endogenous mRNA and protein expression of TMPRSS2 (TMPRSS2): significantly suppressed | expression levels of HSP70 (HSP90, HSP60, HSP70): slightly up-regulated | expression levels of HSP90 and HSP60 (HSP90, HSP60, HSP70): did not influence
